From US20160183564A1 (priority 2013, published 2016)
Several values for one entry are separate records, joined by “and”; a condition that tells them apart may be missing. Equal values may be shown once.

What was measured:
Methanogenesis = assay type: cell-based
VFA production = assay type: cell-based

For `O=[N+]([O-])c1ccc(NCCO)cc1` [2-(4-Nitro-phenylamino)-ethanol], the “Effect on Methanogenesis (% compared to control)” value (from here on “Effect … (% compared to control)”) (Methanogenesis) was −12%.

For `O=[N+]([O-])OCCCO` [3-nitrooxy propanol, 3-Nitrooxypropanol], the “Effect … (% compared to control)” value (Methanogenesis) was −9% and −8%, the “VFA profile (as percentage of total VFA) But.” value (VFA production) was 6 percentage of total VFA and the “VFA profile (as percentage of total VFA) Prop.” value (VFA production) was 34 percentage of total VFA. For the same compound, the “VFA profile (as percentage of total VFA) ace.” value (VFA production) was 59 percentage of total VFA.

`CCCNc1ccc([N+](=O)[O-])cc1` [(4-Nitro-phenyl)-propyl-amine] was tested, and the “Effect … (% compared to control)” value (Methanogenesis) was −11%.

`Nc1ccc([N+](=O)[O-])cc1` [(4-nitro-phenyl)-amine] was tested, and the “Effect … (% compared to control)” value (Methanogenesis) was −15%, the “VFA profile (as percentage of total VFA) But.” value (VFA production) was 8 percentage of total VFA and the “VFA profile (as percentage of total VFA) Prop.” value (VFA production) was 33 percentage of total VFA. The “VFA profile (as percentage of total VFA) ace.” value (VFA production) was 59 percentage of total VFA.
